This passage reports IC50 and Ki results from ChEMBL document CHEMBL1909046, “DrugMatrix in vitro pharmacology data”.

The target in data set [1] is T1, Muscarinic acetylcholine receptor M5 (Homo sapiens, UniProt P08912). Further: in other assays of this panel Not Active means under 50% inhibition at 10 µM.
T1 sequence (P08912 whole entry): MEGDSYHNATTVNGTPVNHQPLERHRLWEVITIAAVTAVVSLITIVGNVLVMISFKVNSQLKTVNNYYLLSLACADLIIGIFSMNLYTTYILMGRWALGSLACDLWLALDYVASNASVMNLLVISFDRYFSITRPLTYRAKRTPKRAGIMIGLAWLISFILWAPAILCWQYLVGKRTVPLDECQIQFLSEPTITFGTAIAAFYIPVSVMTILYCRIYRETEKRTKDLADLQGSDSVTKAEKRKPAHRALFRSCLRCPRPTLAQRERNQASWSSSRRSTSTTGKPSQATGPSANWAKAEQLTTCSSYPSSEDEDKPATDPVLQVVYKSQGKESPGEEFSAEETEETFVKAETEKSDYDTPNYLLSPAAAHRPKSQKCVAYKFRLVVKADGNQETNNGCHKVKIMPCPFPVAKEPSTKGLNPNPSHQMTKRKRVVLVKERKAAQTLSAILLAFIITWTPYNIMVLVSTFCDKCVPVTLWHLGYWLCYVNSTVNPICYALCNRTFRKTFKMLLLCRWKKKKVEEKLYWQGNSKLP
The class given is cell membranes, CHO-K1, Membrane.

The target of data set [2] is T2, Cytochrome P450 1A2 (Homo sapiens, UniProt P05177). Further: in other assays of this panel Not Active means under 50% inhibition at 10 µM.
T2 sequence (P05177 whole entry): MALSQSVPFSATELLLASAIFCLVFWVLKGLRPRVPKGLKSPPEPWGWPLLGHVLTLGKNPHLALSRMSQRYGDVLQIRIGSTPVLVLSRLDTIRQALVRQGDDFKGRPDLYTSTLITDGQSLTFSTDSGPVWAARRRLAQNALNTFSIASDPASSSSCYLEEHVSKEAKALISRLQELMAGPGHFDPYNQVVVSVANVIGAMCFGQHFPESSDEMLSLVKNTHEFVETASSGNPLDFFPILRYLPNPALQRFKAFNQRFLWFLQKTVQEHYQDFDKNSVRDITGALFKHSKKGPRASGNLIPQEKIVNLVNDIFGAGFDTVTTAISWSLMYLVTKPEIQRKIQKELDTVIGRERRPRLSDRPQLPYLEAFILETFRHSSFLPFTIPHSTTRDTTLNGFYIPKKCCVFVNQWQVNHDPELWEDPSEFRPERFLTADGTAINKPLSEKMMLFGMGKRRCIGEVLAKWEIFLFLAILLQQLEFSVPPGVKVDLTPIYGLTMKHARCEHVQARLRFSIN
Conditions: bti-tn-5b1-4.

Data set [3] deals with T3, Alpha-1A adrenergic receptor (Rattus norvegicus, UniProt P43140).
T3 sequence (P43140 whole entry): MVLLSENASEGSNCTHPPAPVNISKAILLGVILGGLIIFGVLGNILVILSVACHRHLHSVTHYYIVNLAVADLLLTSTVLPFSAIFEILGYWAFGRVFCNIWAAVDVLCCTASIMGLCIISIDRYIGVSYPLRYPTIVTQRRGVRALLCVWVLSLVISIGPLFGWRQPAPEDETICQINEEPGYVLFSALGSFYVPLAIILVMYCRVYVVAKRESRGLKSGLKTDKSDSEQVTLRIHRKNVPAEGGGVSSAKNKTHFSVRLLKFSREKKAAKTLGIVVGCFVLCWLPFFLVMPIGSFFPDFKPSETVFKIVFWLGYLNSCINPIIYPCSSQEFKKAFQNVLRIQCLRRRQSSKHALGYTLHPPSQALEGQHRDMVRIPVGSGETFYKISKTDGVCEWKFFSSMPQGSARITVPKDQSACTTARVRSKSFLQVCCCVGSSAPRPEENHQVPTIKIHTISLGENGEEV
Description: DRUGMATRIX: Alpha-1A adrenergic receptor radioligand binding (ligand: prazosin). The data set is classed as cell membranes, Wistar, Submaxillary gland, Membrane. Conditions: Not Active = under 50% inhibition at 10 µM.

In data set [4] the target is Mitogen-activated protein kinase 1 (Homo sapiens, UniProt P28482). The data set is described as follows: DRUGMATRIX: Protein Serine/Threonine Kinase, ERK2 enzyme inhibition (substrate: Myelin Basic Protein). Details: species or system Escherichia coli. The note with it: Not Active = under 50% inhibition at 10 µM.
Sequence of Mitogen-activated protein kinase 1 (P28482 whole entry): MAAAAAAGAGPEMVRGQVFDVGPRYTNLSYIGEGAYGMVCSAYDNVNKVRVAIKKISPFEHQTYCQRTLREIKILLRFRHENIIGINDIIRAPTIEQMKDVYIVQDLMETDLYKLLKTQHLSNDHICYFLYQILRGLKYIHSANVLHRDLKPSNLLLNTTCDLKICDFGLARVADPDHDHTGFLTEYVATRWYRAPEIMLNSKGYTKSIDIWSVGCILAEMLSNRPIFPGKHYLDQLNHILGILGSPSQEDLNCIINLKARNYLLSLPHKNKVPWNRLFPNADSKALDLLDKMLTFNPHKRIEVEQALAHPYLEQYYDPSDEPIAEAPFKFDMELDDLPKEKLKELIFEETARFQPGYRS
Data set [5] has as its target T4, Estrogen receptor (Homo sapiens, UniProt P03372). Further: in other assays of this panel Not Active means under 50% inhibition at 10 µM.
T4 sequence (P03372 whole entry): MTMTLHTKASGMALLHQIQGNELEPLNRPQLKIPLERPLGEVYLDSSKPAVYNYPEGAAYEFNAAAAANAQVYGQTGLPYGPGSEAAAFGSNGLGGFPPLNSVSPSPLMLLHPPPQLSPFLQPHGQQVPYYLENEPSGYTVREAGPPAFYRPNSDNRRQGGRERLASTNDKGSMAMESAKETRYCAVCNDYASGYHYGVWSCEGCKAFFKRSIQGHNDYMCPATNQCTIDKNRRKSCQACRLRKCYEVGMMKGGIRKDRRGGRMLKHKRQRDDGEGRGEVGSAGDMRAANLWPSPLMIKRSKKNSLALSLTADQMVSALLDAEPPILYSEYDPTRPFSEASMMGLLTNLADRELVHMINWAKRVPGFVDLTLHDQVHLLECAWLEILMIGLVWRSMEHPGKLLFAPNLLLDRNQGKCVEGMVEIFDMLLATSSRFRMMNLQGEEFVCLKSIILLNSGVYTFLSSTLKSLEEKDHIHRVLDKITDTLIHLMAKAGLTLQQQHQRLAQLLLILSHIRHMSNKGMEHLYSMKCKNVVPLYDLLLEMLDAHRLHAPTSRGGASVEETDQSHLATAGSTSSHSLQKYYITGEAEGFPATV
The note with it: sf9.

Data set [6] concerns the target T5, Muscarinic acetylcholine receptor M2 (Homo sapiens, UniProt P08172). Further: in other assays of this panel Not Active means under 50% inhibition at 10 µM.
T5 sequence (P08172 whole entry): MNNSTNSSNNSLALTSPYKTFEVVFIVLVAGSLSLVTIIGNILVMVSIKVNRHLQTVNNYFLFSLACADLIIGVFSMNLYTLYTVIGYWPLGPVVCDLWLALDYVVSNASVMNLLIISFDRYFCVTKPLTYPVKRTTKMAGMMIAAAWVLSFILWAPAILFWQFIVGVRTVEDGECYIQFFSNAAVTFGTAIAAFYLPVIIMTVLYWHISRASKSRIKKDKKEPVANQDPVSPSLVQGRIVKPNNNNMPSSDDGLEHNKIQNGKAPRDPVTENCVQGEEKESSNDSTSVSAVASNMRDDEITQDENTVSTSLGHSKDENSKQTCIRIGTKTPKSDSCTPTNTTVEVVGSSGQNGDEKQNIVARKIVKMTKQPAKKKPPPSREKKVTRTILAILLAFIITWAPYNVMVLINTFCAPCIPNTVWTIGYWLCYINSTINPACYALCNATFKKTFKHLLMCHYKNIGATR
The class given is cell membranes, CHO-K1, Membrane.

As to `O=c1[nH]cc(F)c(=O)[nH]1` [FLUOROURACIL], the IC50 entry in data set [1] (cho-k1), in data set [2], in data set [3], in data set [4], in data set [5] and in data set [6] (cho-k1) was “Not Active” each time. Moreover, the Ki (in general, a measure of affinity in units of concentration, obtained from inhibition or displacement) in data set [2] was “Not Active”.
`Nc1nc2c(ncn2COC(CO)CO)c(=O)[nH]1` [GANCICLOVIR]: the concentration for half-maximal inhibition (IC50) entry in data set [1] (cho-k1), in data set [2], in data set [3], in data set [4], in data set [5] and in data set [6] (cho-k1) was “Not Active” each time. For the same compound, in data set [2], the Ki result is on record as “Not Active”.
Consider `COC1=CC(=O)C[C@@H](C)[C@]12Oc1c(Cl)c(OC)cc(OC)c1C2=O` [GRISEOFULVIN], for which the IC50 entry in data set [1] (cho-k1), in data set [2], in data set [3], in data set [4], in data set [5] and in data set [6] (cho-k1) was “Not Active” in each case. For the same compound, the Ki entry in data set [2] is reported as “Not Active”.
For the compound `CN1CCC[C@H]1c1cccnc1` [NICOTINE], the IC50 result in data set [1] (cho-k1), in data set [2], in data set [3], in data set [4], in data set [5] and in data set [6] (cho-k1) was “Not Active” in each case. The inhibition constant (Ki) result in data set [2] is given as “Not Active”.
As for `O=C1CN=C(c2ccccc2)c2cc([N+](=O)[O-])ccc2N1` [NITRAZEPAM], the IC50 result in data set [1] (cho-k1), in data set [2], in data set [3], in data set [4], in data set [5] and in data set [6] (cho-k1) was “Not Active” throughout. Moreover, the Ki result in data set [2] is on record as “Not Active”.
As to `CNCCC=C1c2ccccc2CCc2ccccc21` [NORTRIPTYLINE], the concentration for half-maximal inhibition (IC50) – broadly, the concentration needed to halve the response being measured – in data set [1] (read-out: IC50) is 27 nM; in data set [2] it was “Not Active”; in data set [3] (read-out: IC50) it was 305 nM; in data set [4], “Not Active”; in data set [5], “Not Active”; in data set [6] (read-out: IC50), 347 nM. In addition, the Ki is 20 nM in data set [1] (read-out: Ki), “Not Active” in data set [2], 123 nM in data set [3] (read-out: Ki) and 123 nM in data set [6] (read-out: Ki).
As to `CN(C)[C@@H]1C(O)=C(C(N)=O)C(=O)[C@@]2(O)C(O)=C3C(=O)c4c(O)cccc4[C@@](C)(O)[C@H]3[C@H](O)[C@@H]12` [OXYTETRACYCLINE], the IC50 result in data set [1] (cho-k1), in data set [2], in data set [3], in data set [4], in data set [5] and in data set [6] (cho-k1) was “Not Active” each time. The Ki result in data set [2] is recorded as “Not Active”.
As for `CC(=O)CCCCn1c(=O)c2c(ncn2C)n(C)c1=O` [PENTOXIFYLLINE], the IC50 result in data set [1] (cho-k1), in data set [2], in data set [3], in data set [4], in data set [5] and in data set [6] (cho-k1) was “Not Active” in each case. Also, the Ki result in data set [2] is listed as “Not Active”.
On to `CNC(=O)Oc1ccc2c(c1)[C@]1(C)CCN(C)[C@@H]1N2C` [PHYSOSTIGMINE], for which the IC50 entry in data set [1] (cho-k1), in data set [2], in data set [3], in data set [4], in data set [5] and in data set [6] (cho-k1) was “Not Active” in each case. Further, in data set [2], the inhibition constant (Ki) result is recorded as “Not Active”.
In the case of `C=C(C)[C@@H]1[C@H]2OC(=O)[C@@H]1[C@]1(O)C[C@H]3O[C@]34C(=O)O[C@H]2[C@]14C` [PICROTOXININ], the half-inhibitory concentration (IC50) entry in data set [1] (cho-k1), in data set [2], in data set [3], in data set [4], in data set [5] and in data set [6] (cho-k1) was “Not Active” throughout. Moreover, in data set [2], the inhibition constant Ki result is on record as “Not Active”.
On to `CN1C(C(=O)Nc2ccccn2)=C(O)c2ccccc2S1(=O)=O` [PIROXICAM], for which the half-inhibitory concentration (IC50) result in data set [1] (cho-k1), in data set [2], in data set [3], in data set [4], in data set [5] and in data set [6] (cho-k1) was “Not Active” each time. In addition, the Ki result in data set [2] is recorded as “Not Active”.
Take `CCCc1cc(=O)[nH]c(=S)[nH]1` [PROPYLTHIOURACIL]: the IC50 result in data set [1] (cho-k1), in data set [2], in data set [3], in data set [4], in data set [5] and in data set [6] (cho-k1) was “Not Active” throughout. Besides, in data set [2], the Ki result is on record as “Not Active”.
CARBOPLATIN: the half-inhibitory concentration (IC50) entry in data set [1] (cho-k1), in data set [2], in data set [3], in data set [4], in data set [5] and in data set [6] (cho-k1) was “Not Active” throughout. Further, the Ki result in data set [1] (cho-k1), in data set [2], in data set [3], in data set [4], in data set [5] and in data set [6] (cho-k1) was “Not Active” in each case.
